In ChEMBL document CHEMBL4483862, “Open-source discovery of chemical leads for next-generation chemoprotective antimalarials” (2018) one finds IC50 and IC90 data, which are given here for 29 molecules.

The test relates to Plasmodium berghei. In words: Luciferase/luciferin-expressing antifolate-resistant parasites were used to infect a culture of HepG2 cells that were pre-incubated with compounds. Infected hepatocytes emit light due to the luciferase reaction. Assay results are presented as the percent inhibition of light emission compared to control. […]. The test is classed as functional. The note with it: sporozoite; for IC90: read-out: LUCIFERASE INFECTION ASSAY - IC90.

For `COc1ccc(Nc2nc(S(=O)(=O)c3ccc(C)cc3)c(Cl)s2)cc1`, the IC90 is > 10 µM. The IC50 (HEPG2TOX_HILL_SLOPE 11.4, HEPG2TOX_R_SQUARED 0.576, read-out: LUCIFERASE INFECTION ASSAY - IC50) was > 10 µM.
For `Cc1nc(Sc2nnnn2C)c2c3c(sc2n1)CCC3`, the IC90 was found to be 4.17 µM. Besides, where the note is “HEPG2TOX_HILL_SLOPE 11.4, HEPG2TOX_R_SQUARED 0.852, PBLUC_HILL_SLOPE 13, PBLUC_R_SQUARED 0.536, read-out: LUCIFERASE INFECTION ASSAY - IC50”, the IC50 is 3.52 µM.
For the molecule `Clc1ccc2c(NC3CCN(Cc4ccccc4)CC3)ccnc2c1`, the 90% effect concentration (IC90) worked out at 8.05 µM. Further, the IC50 (HEPG2TOX_HILL_SLOPE 11.4, HEPG2TOX_R_SQUARED 0.805, PBLUC_HILL_SLOPE 13.2, 4.09, PBLUC_R_SQUARED 0.263, 0.797, read-out: LUCIFERASE INFECTION ASSAY - IC50) stood at 5.96 µM.
As to `CC(=O)O[C@]1(C(C)=O)CCC2C3C[C@H](C)C4=CC(=O)CCC4(C)C3CCC21C` (stereo partly drawn), the concentration for an effect of 90% (IC90) is > 8.54 µM. For the same molecule, the IC50 (HEPG2TOX_HILL_SLOPE 11.5, HEPG2TOX_R_SQUARED 0.0757, read-out: LUCIFERASE INFECTION ASSAY - IC50) was > 8.54 µM.
As to `COc1ccc(C(=O)/C=C/c2cccc(C#N)c2)cc1CN1CCCC1`, the IC90 was > 10 µM. The IC50 (HEPG2TOX_HILL_SLOPE 11.5, HEPG2TOX_R_SQUARED 0.623, read-out: LUCIFERASE INFECTION ASSAY - IC50) was > 10 µM.
For `CCOC(=O)c1ccsc1NC(=O)CNc1ccc(Br)cc1`, the IC90 was > 10 µM. Also, under “HEPG2TOX_HILL_SLOPE 11.3, HEPG2TOX_R_SQUARED 0.575, read-out: LUCIFERASE INFECTION ASSAY - IC50”, the IC50 is > 10 µM.
Regarding `O=C(Nc1cccc(Cl)c1)Nc1ccc2nc(-c3ccc(F)c(Cl)c3)nn2c1`, the IC90 stood at 7.37 µM. Further, the IC50 (HEPG2TOX_HILL_SLOPE 11.5, HEPG2TOX_R_SQUARED 0.414, PBLUC_HILL_SLOPE 109, PBLUC_R_SQUARED 0.131, read-out: LUCIFERASE INFECTION ASSAY - IC50) came out at 7.23 µM.
For `Cc1ccccc1NC(=S)N/N=C/c1ccccc1[N+](=O)[O-]`, the IC90 turned out to be 3.66 µM. Further, where the note is “HEPG2TOX_HILL_SLOPE 11.4, HEPG2TOX_R_SQUARED 0.668, PBLUC_HILL_SLOPE 15.4, PBLUC_R_SQUARED 0.358, read-out: LUCIFERASE INFECTION ASSAY - IC50”, the concentration for half-maximal inhibition (IC50) worked out at 3.17 µM.
For the molecule `Cc1nn(-c2cccc(Cl)c2)c2nc(-c3ccccc3)c(-c3nc4ccccc4s3)c(-c3cccnc3)c12`, the IC90 is > 10 µM. Also, the IC50 (HEPG2TOX_HILL_SLOPE 11.2, HEPG2TOX_R_SQUARED 0.958, read-out: LUCIFERASE INFECTION ASSAY - IC50) is > 10 µM.
With `Cc1ccccc1N1CCN(C(=O)c2ccc(Cl)c(S(=O)(=O)NCc3ccccc3)c2)CC1`, the IC90 was > 10 µM. The IC50 (HEPG2TOX_HILL_SLOPE 11.1, HEPG2TOX_R_SQUARED 0.861, PBLUC_HILL_SLOPE 8.51, PBLUC_R_SQUARED 0.104, read-out: LUCIFERASE INFECTION ASSAY - IC50) was 9.26 µM.
In the case of `CC(=O)c1cccc(-c2cc3c(cn2)nc(NCc2ccccc2F)n3C)c1`, the IC90 was > 10 µM. Further, the IC50 (HEPG2TOX_HILL_SLOPE 11.4, HEPG2TOX_R_SQUARED 0.658, PBLUC_HILL_SLOPE 2.4, PBLUC_R_SQUARED 0.114, read-out: LUCIFERASE INFECTION ASSAY - IC50) was 6.65 µM.
On to `CC(C)CC(N)c1csc(Nc2nncc3ccccc23)n1` (stereo not drawn), for which the IC90 amounted to 4.43 µM. Moreover, the IC50 (HEPG2TOX_HILL_SLOPE 11.3, HEPG2TOX_R_SQUARED 0.262, PBLUC_HILL_SLOPE 9.28, PBLUC_R_SQUARED 0.498, read-out: LUCIFERASE INFECTION ASSAY - IC50) came to 3.5 µM.
Turning to `COc1cc(-c2cc(-c3cc(C)c(O)c(C)c3)cnc2N)ccc1O`, the IC90 came out at 3.93 µM. Besides, the 50% inhibitory concentration (IC50) (HEPG2TOX_HILL_SLOPE 11.4, HEPG2TOX_R_SQUARED 0.062, PBLUC_HILL_SLOPE 8, PBLUC_R_SQUARED 0.677, read-out: LUCIFERASE INFECTION ASSAY - IC50) was found to be 2.99 µM.
In the case of `COc1ccccc1CN1C(=O)C=CC1=O`, the IC90 is > 15.2 µM. Also, the IC50 (HEPG2TOX_HILL_SLOPE 11.1, HEPG2TOX_R_SQUARED 0.957, PBLUC_HILL_SLOPE 12.9, PBLUC_R_SQUARED 0.465, read-out: LUCIFERASE INFECTION ASSAY - IC50) came out at 13.8 µM.
Regarding `COc1ccc(C(C)C)cc1-c1cnc(N)c(-c2ccc(F)c(Cl)c2)c1`, the IC90 was > 8.9 µM. Also, the 50% inhibitory concentration (IC50) (HEPG2TOX_HILL_SLOPE 11.3, HEPG2TOX_R_SQUARED 0.599, PBLUC_HILL_SLOPE 2.08, PBLUC_R_SQUARED 0.63, read-out: LUCIFERASE INFECTION ASSAY - IC50) is 3.98 µM.
On to `CCn1c(NC(=O)c2c(C)nn(-c3ccccc3)c2C)nc2ccccc21`, for which the IC90 was 9.89 µM. For the same molecule, the IC50 (HEPG2TOX_HILL_SLOPE 11.2, HEPG2TOX_R_SQUARED 0.651, PBLUC_HILL_SLOPE 20.8, PBLUC_R_SQUARED 0.508, read-out: LUCIFERASE INFECTION ASSAY - IC50) came to 8.9 µM.
For `CC(NC(=O)c1cnn(-c2ccc(C(F)(F)F)cn2)c1C(F)(F)F)C1CC2CCC1C2` (stereo not drawn), the IC90 was 5.3 µM. Moreover, the IC50 (HEPG2TOX_HILL_SLOPE 11.2, HEPG2TOX_R_SQUARED 0.292, PBLUC_HILL_SLOPE 7.94, PBLUC_R_SQUARED 0.51, read-out: LUCIFERASE INFECTION ASSAY - IC50) came out at 4.02 µM.
Turning to `Cc1nnc(Sc2ncnc3scc(-c4ccccc4)c23)s1`, the IC90 was 6.88 µM. Under “HEPG2TOX_HILL_SLOPE 11.3, HEPG2TOX_R_SQUARED 0.507, PBLUC_HILL_SLOPE 5.22, PBLUC_R_SQUARED 0.122, read-out: LUCIFERASE INFECTION ASSAY - IC50”, the IC50 was 4.52 µM.
With `CC(=O)Oc1ccc(-c2ccc(C(=O)OCC(=O)Nc3sccc3C(N)=O)cc2)cc1`, the IC90 is > 10 µM. The concentration for half-maximal inhibition (IC50) (HEPG2TOX_HILL_SLOPE 11.3, HEPG2TOX_R_SQUARED 0.976, PBLUC_HILL_SLOPE 2.77, PBLUC_R_SQUARED 0.661, read-out: LUCIFERASE INFECTION ASSAY - IC50) came out at 5.01 µM.
As for `FC(F)(F)Oc1ccc(-c2cnc3ccc(NCc4ccccn4)nn23)cc1`, the IC90 is 1.24 µM. Further, under “HEPG2TOX_HILL_SLOPE 11.3, HEPG2TOX_R_SQUARED 0.834, PBLUC_HILL_SLOPE 11.1, PBLUC_R_SQUARED 0.439, read-out: LUCIFERASE INFECTION ASSAY - IC50”, the IC50 was found to be 1.02 µM.
With `Cc1cc(C(C)(C)C)cc(C)c1N1C(=O)C=CC1=O`, the IC90 was > 12.8 µM. Besides, for the setting “HEPG2TOX_HILL_SLOPE 11.2, HEPG2TOX_R_SQUARED 0.888, PBLUC_HILL_SLOPE 4.45, PBLUC_R_SQUARED 0.621, read-out: LUCIFERASE INFECTION ASSAY - IC50”, the IC50 came to 8.96 µM.
Take `O=[N+]([O-])c1cc(-c2nc(-c3cc(C(F)(F)F)cc(C(F)(F)F)c3)no2)cs1`: the IC90 is > 8.06 µM. The IC50 (HEPG2TOX_HILL_SLOPE 11.5, HEPG2TOX_R_SQUARED 0.674, read-out: LUCIFERASE INFECTION ASSAY - IC50) was > 8.06 µM.
For `Cc1cc(Nc2ccc3c(=O)c(-c4c(F)cccc4Cl)c(C)oc3c2)no1`, the IC90 was > 10 µM. Moreover, where the note is “HEPG2TOX_HILL_SLOPE 11.5, HEPG2TOX_R_SQUARED 0.0504, PBLUC_HILL_SLOPE 0.784, PBLUC_R_SQUARED 0.684, read-out: LUCIFERASE INFECTION ASSAY - IC50”, the IC50 stood at 1.11 µM.
In the case of `N#CC(C#N)=NNc1ccc(OC(F)(F)F)cc1`, the IC90 was > 13 µM. Besides, the IC50 (HEPG2TOX_HILL_SLOPE 11.1, HEPG2TOX_R_SQUARED 0.969, PBLUC_HILL_SLOPE 0.201, PBLUC_R_SQUARED 0.0877, read-out: LUCIFERASE INFECTION ASSAY - IC50) stood at 0.245 µM.
`O=C(COc1ccccc1C(=O)Nc1nc(-c2ccccc2)cs1)Nc1cccc(C(F)(F)F)c1`: the concentration for an effect of 90% (IC90) amounted to 5.93 µM. The IC50 (HEPG2TOX_HILL_SLOPE 11.2, HEPG2TOX_R_SQUARED 0.982, PBLUC_HILL_SLOPE 4.71, PBLUC_R_SQUARED 0.747, read-out: LUCIFERASE INFECTION ASSAY - IC50) was found to be 3.72 µM.
As to `O=C(Nc1ccc(-c2nc3ccccc3[nH]2)cc1)c1ccc2c(=O)n3c(nc2c1)CCCCCC3`, the IC90 amounted to 4.15 µM. In addition, the IC50 (HEPG2TOX_HILL_SLOPE 11.2, HEPG2TOX_R_SQUARED 0.937, PBLUC_HILL_SLOPE 12.6, PBLUC_R_SQUARED 0.815, read-out: LUCIFERASE INFECTION ASSAY - IC50) was 3.48 µM.
Turning to `O=[N+]([O-])c1ccc(-c2nnc(SCc3c(Cl)cccc3Cl)o2)o1`, the IC90 turned out to be 8.84 µM. The IC50 (HEPG2TOX_HILL_SLOPE 11.4, HEPG2TOX_R_SQUARED 0.952, PBLUC_HILL_SLOPE 3.38, PBLUC_R_SQUARED 0.564, read-out: LUCIFERASE INFECTION ASSAY - IC50) worked out at 4.61 µM.
On to `NC(=O)NC(CC(=O)Nc1ccc2c(c1)-c1ccccc1C2)c1ccccc1` (stereo not drawn), for which the IC90 is > 10 µM. The IC50 (HEPG2TOX_HILL_SLOPE 11.3, HEPG2TOX_R_SQUARED 0.75, PBLUC_HILL_SLOPE 2.98, PBLUC_R_SQUARED 0.106, read-out: LUCIFERASE INFECTION ASSAY - IC50) came to 6.7 µM.
Regarding `Cc1ccc(NC(=S)NC2CCCCCCCCCCC2)cc1Cl`, the 90% effect concentration (IC90) came to 8.43 µM. Moreover, for the setting “HEPG2TOX_HILL_SLOPE 11.3, HEPG2TOX_R_SQUARED 0.761, PBLUC_HILL_SLOPE 19.1, PBLUC_R_SQUARED 0.333, read-out: LUCIFERASE INFECTION ASSAY - IC50”, the IC50 stood at 7.51 µM.

The IC50 is the concentration at which inhibition is half-maximal. A word on the IC90: it is the point of the concentration-response curve where the effect stands at 90%.
